Data: patent US4472305A, “Hexapeptide amides” (Sterling Drug Inc., priority 1983, dated 1984)
Non-standard residues stand in square brackets, D forms with d. Residues, ends and D or L forms follow the SMILES beside them.

What was measured:
[1] = test system: longitudinal muscle of guinea pig terminal ileum; experiment: Guinea pig ileum test (SP agonist and antagonist effect); format: cell-based; details: for Guinea Pig Ileum pA2: antagonism of reference agonist, Schild plot analysis; for Guinea Pig Ileum % Agonism (potency relative to SP): contraction of ileum longitudinal muscle strips, relative molar potency vs SP
Protocol: Strips of longitudinal muscle derived from terminal ileum of adult male guinea pigs (Charles River, 400-600 g.) are mounted in 5-ml. organ baths containing oxygenated Krebs solution containing 1 μM each of atropine and pyrilamine maintained at 30-33 C. and connected to isometric transducers. Following tissue equilibration and repeated washing (45-60 min.), SP or an appropriate reference agonist is added cumulatively to the bath and contractions of the tissue are recorded. The bath is washed thoroughly and 30-45 min. is allowed to elapse before construction of a second reference agonist curve to assure reproducibility of the responses. Test compounds are similarly evaluated for agonist activity up to a maximum concentration of 10-100 μM. […] When appropriate, relative molar potency ratios are calculated (EC50 reference/ED50 test drug). […] The effects of several concentrations of test antagonist, pooled across separate experiments, provide dose-ratio (EC50 shift) data for a standard Schild plot analysis, with computation of the pA2.

rat vas deferens = experiment: Rat vas deferens test (SP antagonist effect); format: cell-based; details: reversal of potentiation by 10 μM SP of electrically induced contractions
Protocol: Rat vasa deferentia are suspended in organ baths containing warmed, oxygenated Krebs solution and repetitively field-stimulated (0.1 Hz., 1 msec. duration, monophasic pulses) through platinum wire ring electrodes. Rapid, regular contractions of the muscle are recorded via transducers on a Grass polygraph. SP and related tachykinins added to the bath evoke a dose-dependent, stable potentiation of these electrically-induced contractions. For routine screening, a 10 μM concentration of SP is applied to all tissues to produce a 2-6 fold increase in electrically-stimulated twitch height. SP antagonist compounds (1-30 μM) produce an immediate, dose-related reversal of the response of the tissue to SP, which is quantified by determination of an IC50.

SP receptor = molecular target: T1, SP receptor (Rattus norvegicus, UniProt P14600); experiment: 3H-SP binding test, rat submaxillary gland tissue; details: for inhibition at 30 µM: read-out: 3H-SP Binding % Inhibition
T1 construct: from tissue; host or cells: rat submaxillary gland (crude tissue suspension)
Protocol: Crude rat submaxillary gland or brain tissue is suspended in buffer containing protease inhibitors (and calcium ions and magnesium ions in the case of brain tissue) and incubated under nitrogen atmosphere with ^3 H-SP and test compound. The bound SP is then separated from free SP by filtration and quantitated by liquid scintillation spectroscopy. This test meets the criteria of reversibility, saturability, sensitivity to known SP agonists and antagonists, and specificity for an SP receptor binding assay.
With regard to reversibility, addition of unlabelled SP causes a gradual decrease in bound ^3 H-SP, showing that SP is not irreversibly bound to the receptors in the tissue. With regard to saturability, the amount of bound ^3 H-SP in the preparation increases in direct proportion to the concentration of ^3 H-SP added until a saturation point is reached. […] With regard to sensitivity, known SP agonists and antagonists inhibit ^3 H-SP binding.
The results are expressed either as percent inhibition at a concentration of 30 micromoles per liter (μM) or as an IC50 calculated as the concentration in micromoles per liter.
The ^3 H-SP binding test results were obtained using rat submaxillary gland tissue for Examples 1-34 and rat brain tissue for Examples 35-42.

T1 sequence (P14600 whole entry): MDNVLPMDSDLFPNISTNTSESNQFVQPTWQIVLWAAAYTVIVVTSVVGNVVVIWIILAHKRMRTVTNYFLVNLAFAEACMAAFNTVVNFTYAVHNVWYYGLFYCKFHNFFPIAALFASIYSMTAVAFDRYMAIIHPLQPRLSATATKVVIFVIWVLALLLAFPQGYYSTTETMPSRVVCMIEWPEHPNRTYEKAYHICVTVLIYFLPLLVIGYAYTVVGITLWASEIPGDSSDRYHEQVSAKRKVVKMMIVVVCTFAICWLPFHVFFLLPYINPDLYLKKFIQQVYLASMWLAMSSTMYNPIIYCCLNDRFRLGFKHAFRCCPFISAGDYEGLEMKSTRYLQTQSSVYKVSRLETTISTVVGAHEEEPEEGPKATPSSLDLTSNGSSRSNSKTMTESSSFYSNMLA

For `CSCC[C@H](NC(=O)[C@H](CC(C)C)NC(=O)[C@@H](Cc1c[nH]c2ccccc12)NC(=O)[C@H](Cc1ccccc1)NC(=O)[C@@H](Cc1ccccc1)NC(=O)[C@@H]1CCCN1)C(N)=O` [Example 12, HPro-DPhe-Phe-DTrp-Leu-MetNH2] (H-P[dF]F[dW]LM-NH2), the “Guinea Pig Ileum pA2” value [1] was 5.6, the “Guinea Pig Ileum % Agonism (potency relative to SP)” value [1] was 0.0001% and the IC50 (rat vas deferens) was 13 µM. The IC50 (SP receptor; 3H-SP Binding IC50(μM), rat submaxillary gland tissue (Examples 1-34)) was 26.8 µM and the inhibition at 30 µM (SP receptor) was 69%.
`CSCC[C@H](NC(=O)[C@H](CC(C)C)NC(=O)[C@@H](Cc1ccccc1)NC(=O)[C@H](Cc1ccccc1)NC(=O)[C@@H](Cc1ccccc1)NC(=O)[C@@H]1CCCN1)C(N)=O` [Example 23, HPro-DPhe-Phe-DPhe-Leu-MetNH2] (H-P[dF]F[dF]LM-NH2) was tested, and the “Guinea Pig Ileum pA2” value [1] was 5.4, the “Guinea Pig Ileum % Agonism (potency relative to SP)” value [1] was < 0.001% and the IC50 (rat vas deferens) was 20 µM. For the same molecule, the inhibition at 30 µM (SP receptor) was 53%.
